Test results from patent US11304929B2, “Tosylacetate based compounds and derivatives thereof as PHGDH inhibitors” (priority 2017, dated 2022).
Like-named read-outs stand apart in the source and are kept apart here.

Biological target: PHGDH (Homo sapiens (Human), UniProt O43175)
Test: 3-Phosphoglycerate Dehydrogenase (PHGDH) Fluorescence Intensity Assay, run at two NAD/3-PG ratios: PHGDH_HIGH_NAD/3-PG (250 μM NAD/500 μM 3-PG) and PHGDH_500_NAD/3-PG (500 μM NAD/500 μM 3-PG)
Format: biochemical
[1] = 250 μM NAD/500 μM 3-PG, read-out: IC50 (PHGDH_HIGH_NAD/3-PG)
[2] = 500 μM NAD/500 μM 3-PG, read-out: IC50 (PHGDH_500_NAD/3-PG)

PHGDH, sequence (O43175 2-533 limits assumed): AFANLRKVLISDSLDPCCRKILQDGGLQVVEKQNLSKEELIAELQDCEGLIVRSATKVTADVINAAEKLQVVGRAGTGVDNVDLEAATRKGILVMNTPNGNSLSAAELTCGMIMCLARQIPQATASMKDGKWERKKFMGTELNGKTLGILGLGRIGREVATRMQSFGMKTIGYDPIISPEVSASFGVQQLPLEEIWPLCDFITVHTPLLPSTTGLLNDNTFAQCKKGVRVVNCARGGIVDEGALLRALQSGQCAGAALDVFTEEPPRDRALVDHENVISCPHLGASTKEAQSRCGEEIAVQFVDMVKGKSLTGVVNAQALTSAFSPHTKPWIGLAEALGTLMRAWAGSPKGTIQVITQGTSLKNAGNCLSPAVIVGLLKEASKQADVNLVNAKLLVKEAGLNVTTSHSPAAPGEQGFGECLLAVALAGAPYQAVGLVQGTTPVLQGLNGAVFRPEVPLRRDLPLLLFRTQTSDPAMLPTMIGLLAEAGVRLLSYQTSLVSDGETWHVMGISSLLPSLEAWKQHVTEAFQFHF
From the text: This assay is used to identify compounds which inhibit the enzymatic activity of PHGDH which catalyzes the reaction of 3-Phosphoglycerate (3-PG) and NAD to 3-Phosphohydroxypyruvate and NADH.
The produced NADH is used in a coupled reaction for Diaphorase mediated reduction of Resazurin to Resorufin which can be measured in a Fluorescence Intensity readout.
The full length version of PHGDH enzyme was expressed in E. coli with an N-terminal HIS-tag and a TEV cleavage site.
The 3-Phosphoglycerate substrate was purchased from Sigma. NAD, Diaphorase and Resazurin were purchased from Sigma Aldrich.
Compounds are dispensed onto assay plates (black, low volume, flat bottom 384 well, Corning) using an Access Labcyte Workstation with the Labcyte Echo 55× from a DMSO solution. For the chosen highest assay concentration of 100 μM, 150 nl of compound solution are transferred from a 10 mM DMSO compound stock solution. A series of 11 concentrations (10 1:5 steps) is transferred for each compound.
The assay has been performed at two different NAD/3-PG ratios (final assay concentrations):
Plates are kept at room temperature. After 240 minutes incubation time the fluorescence signal is measured in a PerkinElmer Envision HTS Multilabel Reader with an excitation wavelength at 530-560 nm and an emission wavelength at 590 nm.
Each plate contains negative controls (diluted DMSO instead of test compound; reaction as described with PHGDH protein) and positive controls (diluted DMSO instead of test compound; reaction as described with buffer instead of PHGDH protein). Negative and positive control values are used for normalization.
IC50 values are calculated and analyzed in the MEGALAB IC50 application using a 4 parametric logistic model.

Cc1cc2c(cc(C(=O)N[C@H](C)c3ccc(S(=O)(=O)CC(=O)OC(C)C)cc3)n2C)c(Cl)c1F [Example 01-033, propan-2-yl 2-{4-[(1R)-1-[(4-chloro-5-fluoro-1,6-dimethyl-1H-indol-2-yl)formamido]ethyl]benzenesulfonyl}acetate]
IC50 [1]: 36500 nM

Cc1cc(Cl)c2cc(C(=O)N[C@H](CO)c3ccc(S(=O)(=O)CC(=O)OC(C)C)cc3)n(C)c2n1 [Example 01-034, propan-2-yl 2-{4-[(1S)-1-({4-chloro-1,6-dimethyl-1H-pyrrolo[2,3-b]pyridin-2-yl}formamido)-2-hydroxyethyl]benzenesulfonyl}acetate]
IC50 [1]: 1150 nM

Cc1cc2c(cc(C(=O)N[C@H](CO)c3ccc(S(=O)(=O)CC(=O)OC(C)C)cc3)n2C)c(Cl)c1F [Example 01-035, propan-2-yl 2-{4-[(1S)-1-[(4-chloro-5-fluoro-1,6-dimethyl-1H-indol-2-yl)formamido]-2-hydroxyethyl]benzenesulfonyl}acetate]
IC50 [1]: 466 nM

Cc1cc(Cl)c2cc(C(=O)N[C@H](C)c3ccc(S(=O)(=O)CC(=O)OC(C)C)cc3)n(C)c2n1 [Example 01-036, propan-2-yl 2-{4-[(1R)-1-({4-chloro-1,6-dimethyl-1H-pyrrolo[2,3-b]pyridin-2-yl}formamido)ethyl]benzenesulfonyl}acetate]
IC50 [1]: 1830 nM

Cc1cc2c(cc(C(=O)N[C@H](C)c3ccc(S(=O)(=O)CC(=O)OC(C)C)cc3)n2C)c(Cl)c1Cl [Example 01-037, propan-2-yl 2-{4-[(1R)-1-[(4,5-dichloro-1,6-dimethyl-1H-indol-2-yl)formamido]ethyl]benzenesulfonyl}acetate]
IC50 [1]: 3370 nM

Cc1cc(Cl)c2cc(C(=O)N[C@H](CO)c3ccc(S(=O)(=O)CC(=O)OC(C)C)cc3)n(C)c2c1 [Example 01-038, propan-2-yl 2-{4-[(1S)-1-[(4-chloro-1,6-dimethyl-1H-indol-2-yl)formamido]-2-hydroxyethyl]benzenesulfonyl}acetate]
IC50 [1]: 261 nM

Cc1cc2c(cc(C(=O)N[C@H](CO)c3ccc(S(=O)(=O)CC(=O)OC(C)C)cc3)n2C)c(F)c1F [Example 01-039, propan-2-yl 2-{4-[(1S)-1-[(4,5-difluoro-1,6-dimethyl-1H-indol-2-yl)formamido]-2-hydroxyethyl]benzenesulfonyl}acetate]
IC50 [1]: 1120 nM

CC(C)OC(=O)CS(=O)(=O)c1ccc([C@@H](CO)NC(=O)c2cc3c(Cl)cc(N4CCN(C)CC4)cc3n2C)cc1 [Example 01-040, propan-2-yl 2-{4-[(1S)-1-{[4-chloro-1-methyl-6-(4-methylpiperazin-1-yI)-1H-indol-2-yl]formamido}-2-hydroxyethyl]benzenesulfonyl}acetate]
IC50 [1]: 981 nM

CC(C)OC(=O)CS(=O)(=O)c1ccc([C@@H](C)NC(=O)c2cc3c(Cl)cc(N4CCN(C)CC4)cc3n2C)cc1 [Example 01-041, propan-2-yl 2-{4-[(1R)-1-{[4-chloro-1-methyl-6-(4-methylpiperazin-1-yl)-1H-indol-2-yl]formamido}ethyl]benzenesulfonyl}acetate]
IC50 [1]: 3140 nM

COC(=O)CS(=O)(=O)c1ccc([C@@H](C)NC(=O)c2cc(-c3ccccc3)nn2C)cc1 [Example 02-002, methyl 2-{4-[(1R)-1-[(1-methyl-3-phenyl-1H-pyrazol-5-yl)formamido]ethyl]benzenesulfonyl}acetate]
IC50 [1]: 1360 nM

CCOC(=O)CS(=O)(=O)c1ccc([C@@H](C)NC(=O)c2cc(-c3ccccc3)nn2C)cc1 [Example 02-003, ethyl 2-{4-[(1R)-1-[(1-methyl-3-phenyl-1H-pyrazol-5-yl)formamido]ethyl]benzenesulfonyl}acetate]
IC50 [1]: 3180 nM

COC(=O)CS(=O)(=O)c1ccc([C@@H](C)NC(=O)c2cc(-c3cccc4cc[nH]c34)nn2C)cc1 [Example 02-006, methyl 2-{4-[(1R)-1-{[3-(1H-indol-7-yl)-1-methyl-1H-pyrazol-5-yl]formamido}ethyl]benzenesulfonyl}acetate]
IC50 [1]: 1270 nM

COC(=O)CS(=O)(=O)c1ccc([C@H](C)NC(=O)c2cc(-c3ccccc3)nn2C)cn1 [Example 02-009, methyl 2-({5-[(1S)-1-[(1-methyl-3-phenyl-1H-pyrazol-5-yl)formamido]ethyl]pyridin-2-yl}sulfonyl)acetate]
IC50 [1]: > 100000 nM

COc1cc(-c2cc(C(=O)N[C@H](C)c3ccc(S(=O)(=O)CC(=O)OC(C)C)cc3)n(C)n2)ccc1F [Example 02-012, propan-2-yl 2-{4-[(1R)-1-{[3-(4-fluoro-3-methoxyphenyl)-1-methyl-1H-pyrazol-5-yl]formamido}ethyl]benzenesulfonyl}acetate]
IC50 [1]: 3720 nM

COc1cc(-c2cc(C(=O)N[C@H](C)c3ccc(S(=O)(=O)CC(=O)OC(C)C)cc3)n(C)n2)ccc1Cl [Example 02-013, propan-2-yl 2-{4-[(1R)-1-{[3-(4-chloro-3-methoxyphenyl)-1-methyl-1H-pyrazol-5-yl]formamido}ethyl]benzenesulfonyl}acetate]
IC50 [1]: 6120 nM

CC(C)OC(=O)CS(=O)(=O)c1ccc([C@@H](C)NC(=O)c2cc(-c3ccc(Cl)c(Cl)c3)nn2C)cc1 [Example 02-014, propan-2-yl 2-{4-[(1R)-1-{[3-(3,4-dichlorophenyl)-1-methyl-1H-pyrazol-5-yl]formamido}ethyl]benzenesulfonyl}acetate]
IC50 [1]: 73300 nM

Cc1cc(-c2cc(C(=O)N[C@H](C)c3ccc(S(=O)(=O)CC(=O)OC(C)C)cc3)n(C)n2)ccc1F [Example 02-015, propan-2-yl 2-{4-[(1R)-1-{[3-(4-fluoro-3-methylphenyl)-1-methyl-1H-pyrazol-5-yl]formamido}ethyl]benzenesulfonyl}acetate]
IC50 [1]: 5490 nM

CC(C)OC(=O)CS(=O)(=O)c1ccc([C@@H](C)NC(=O)c2cc(-c3ccc(F)c(F)c3)nn2C)cc1 [Example 02-016, propan-2-yl 2-{4-[(1R)-1-{[3-(3,4-difluorophenyl)-1-methyl-1H-pyrazol-5-yl]formamido}ethyl]benzenesulfonyl}acetate]
IC50 [1]: > 20000 nM

CC(C)OC(=O)CS(=O)(=O)c1ccc([C@@H](CO)NC(=O)c2cc(-c3ccc(F)cc3)nn2C)cc1 [Example 02-017, propan-2-yl 2-{4-[(1S)-1-{[3-(4-fluorophenyl)-1-methyl-1H-pyrazol-5-yl]formamido}-2-hydroxyethyl]benzenesulfonyl}acetate]
IC50 [1]: 7710 nM

Cc1cc(Cl)c2cc(C(=O)N[C@H](C)c3ccc(S(=O)(=O)CC(=O)O)cc3)n(C)c2c1C [Example 03-003, 2-{4-[(1R)-1-[(4-chloro-1,6,7-trimethyl-1H-indol-2-yl)formamido]ethyl]benzenesulfonyl}acetic acid]
IC50 [1]: 13 nM
IC50 [2]: 22 nM

C[C@@H](NC(=O)c1cc2c(Cl)cc(-c3cnn(C)c3)cc2n1C)c1ccc(S(=O)(=O)CC(=O)O)cc1 [Example 03-004, 2-{4-[(1R)-1-{[4-chloro-1-methyl-6-(1-methyl-1H-pyrazol-4-yl)-1H-indol-2-yl]formamido}ethyl]benzenesulfonyl}acetic acid]
IC50 [1]: 20 nM
IC50 [2]: 29 nM

C#Cc1cc(Cl)c2cc(C(=O)NC(C)c3ccc(S(=O)(=O)CC(=O)O)cc3)n(C)c2c1 (stereo not drawn) [Example 03-007, 2-(4-{1-[(4-chloro-6-ethynyl-1-methyl-1H-indol-2-yl)formamido]ethyl}benzenesulfonyl)acetic acid]
IC50 [1]: 29 nM
